Laboratory results from patent US20040053872A1, “New sequences” (priority 2000, published 2004).
Like-named read-outs stand apart in the source and are kept apart here. Strand notation (5' to 3'): a small letter for the sugar, then the base; units joined by * are phosphorothioate-linked, units joined directly phosphodiester-linked; [ ] holds rarer units or linkages, { } end groups; capitals alone tell only the bases. r = 2'-OH (RNA)

What was measured:
[1] = molecular target: T1, recombinant HIV-1 RT L100I/K103N (Human immunodeficiency virus type 1 group M subtype B, UniProt P03366, K702N/L699I); assay: RT assay: inhibition of RNA dependent DNA polymerisation (modified Lenti RT assay); assay type: biochemical; settings: enzyme/inhibitor preincubated 30 minutes at 33° C., BrdUTP 0.35 μM, odT22 0.03 ng per well, 3 hours, read-out: IC50 of indicated inhibitor in RT assay
T1 construct: performed by recombinant HIV-1 RT:s with defined
Experimental: (§1) The flourimetric RT assay (Cavidi® Lenti RT activity kit), available from Cavidi Tech, Uppsala, Sweden, was used for the determination of RT activity. In short, poly(rA) covalently bound to the wells of a 96 well microtiter plate serves as template for the incorporation of 5-bromodeoxyuridine 5′-triphosphate (BrdUTP) during the reverse transcription step at 33° C. The amount of bromodeoxyuridine monophosphate (BrdUMP) incorporated into DNA is detected with an alkaline phosphatase (Ap) conjugated, anti-BrdU monoclonal antibody. An Ap substrate, 4-methylumbelliferyl phosphate, is finally used for fluorimetric product detection.
(i) Protocol for determination of inhibition of RNA dependent DNA polymerisation: The inhibition studies were performed in a modified Lenti RT assay. The inhibitors were serially diluted in five steps, whereupon enzyme dilution was added and the enzyme/inhibitor mixtures were incubated for 30 minutes at 33° C. The enzyme reaction was initiated by addition of 100 μl aliquots of the enzyme/inhibitor mixture to each well of a microtiter plate containing 100 μl RT reaction mixture per well. The polymerase reaction was allowed to proceed for 3 hours at 33° C., whereupon the reaction was terminated by a wash of the plate. […] The amount of RT used was standardised to an activity corresponding to 90-130 pg (7-10×10^−16 mol) reference HIV-1 RT per well […]

[2] = molecular target: T2, recombinant HIV-1 RT E478Q (Human immunodeficiency virus type 1 group M subtype B, UniProt P03366, E1077Q); settings: binding 90 min at 33° C.
T2 construct: performed by recombinant HIV-1 RT:s with defined
Experimental: (§2) (iii) Protocol for RT binding inhibition (BIC) assay: The study was performed in a modified DNA polymerase assay. The inhibitors were serially diluted in five steps, enzyme dilution was added and the enzyme/inhibitor mixtures were incubated for 30 minutes at 33° C. Aliquots of the enzyme/inhibitor mixture were transferred to each well of a microtiter plate containing either immobilised primer, or primer/template. The enzyme was allowed to bind to the immobilised polymer for 90 min at 33° C. The amount of RT used was standardised to an activity corresponding to 40-60 pg (3.3-5.0×10^−16 mol) reference HIV-1 RT per well. The plates were then washed to remove unbound enzyme whereupon the amount of bound enzyme was determined by addition of the appropriate reaction solution for polymerisation (i e a reaction solution devoid of primer for studies of primer binding and a reaction solution devoid of both primer and template for studies of binding to primed template). The polymerase reaction was allowed to proceed for 3 hours at 33° C., whereupon the reaction was terminated by a wash of the plate.
(§3) The capacity of the indicated substances to inhibit the binding to primer or to primed DNA template of a panel of recombinant HIV 1 subtype B RTs was studied according to “Protocol for RT binding inhibition (BIC) assay” (protocol (iii) above).

[3] = molecular target: T3, recombinant HIV-1 RT L100I (Human immunodeficiency virus type 1 group M subtype B, UniProt P03366, L699I); settings: binding 90 min at 33° C.
T3 construct: performed by recombinant HIV-1 RT:s with defined
Experimental: as §2, §3

[4] = test system: panel of recombinant HIV 1 subtype B RTs; assay: RT assay: inhibition of RNA dependent DNA polymerisation, whole RT panel; assay type: biochemical; settings: for IC50: all RTs of the panel, summary of table 1, read-out: IC50, range over all RTs studied (reverse transcription)
Experimental: as §1
(i) Protocol for determination of inhibition of RNA dependent DNA polymerisation: The inhibition studies were performed in a modified Lenti RT assay. […]
The final nucleotide substrate (BrdUTP) concentration was 0.35 μM, and the primer (odT22) amount was 0.03 ng per well.

[5] = test system: panel of recombinant HIV 1 subtype B RTs; assay: RT binding inhibition (BIC) assay, whole RT panel; settings: all conditions studied
Experimental: as §2, §3

[6] = molecular target: T4, recombinant HIV-1 RT, ref RT (HIV type B, clone BH 10) (Human immunodeficiency virus type 1 group M subtype B, UniProt P03366); assay type: biochemical; parameters: performed by recombinant HIV-1 RT:s with defined; settings: second strand DNA synthesis, preincubation 30 minutes at 33° C., 3 hours, read-out: IC50 of indicated inhibitor in DNAp assay
Excerpt: The flourimetric DNA-polymerase assay used is available from Cavidi Tech AB, Uppsala, Sweden. It is based on a short DNA primer analogous to a part of the tRNA^Lys3 sequence. The template is a single stranded deoxynucleotide template with part of the sequence complementary to the primer. The enzyme reaction is dependent on all four deoxynucleotide bases. The thymidine triphosphate is, however, replaced by BrdUTP. The amount of BrdUMP incorporated into DNA during the polymerase reaction is detected with an alkaline phosphatase (Ap) conjugated anti-BrdU monoclonal antibody. An Ap substrate, 4-methylumbelliferyl phosphate, is finally used for fluorimetric product detection.
(ii) Protocol for determination of inhibition of second strand synthesis on a variable DNA template: The inhibition studies were performed in a modified DNA polymerase assay. The inhibitors were serially diluted in five steps, enzyme dilution was added and the enzyme/inhibitor mixtures were incubated for 30 minutes at 33° C. The enzyme reaction was initiated by addition of 75 μl aliquots of the enzyme/inhibitor mixture to each well of a microtiter plate containing 75 μl DNA polymerase reaction mixture per well. The polymerase reaction was allowed to proceed for 3 hours at 33° C. whereupon the reaction was terminated by a wash of the plate. […]

[7] = molecular target: T4, recombinant HIV-1 RT, ref RT (HIV type B, clone BH 10); parameters: performed by recombinant HIV-1 RT:s with defined; settings: immobilised primer/template, binding 90 min at 33° C., read-out: Inhibition of binding to template/primer (BIC50)
Experimental: as §2, §3

[8] = immobilised primer, read-out: Inhibition of binding to primer (BIC50)
[9] = immobilised primer/template, read-out: Inhibition of binding to template/primer (BIC50)

Substance	IC50 [1] [nM]	IC50 [2, 8] [nM]	IC50 [2, 9] [nM]	IC50 [3, 8] [nM]	IC50 [3, 9] [nM]	IC50 [4] [nM]	Capacity to prevent RT binding to primer or primed template [5]	IC50 [6] [nM]	IC50 [7] [nM]	Results with inhibitor added directly to the RT reaction mixture compared with the standard procedure ([4]; alternative procedure without pre-incubation)
substance 198: 15-mer RNA phosphorothioate with the base sequence of tRNALys3 anticodon stem and loop, SEQ ID NO:7 (rC*rA*rG*rA*rC*rU*rU*rU*rU*rA*rA*rU*rC*rU*rG) [reference compound]	900	> 1000	> 1000	> 1000	> 1000	340 to 1100	significantly less capacity to prevent RT binding	550	900	–
substance 199: 35-mer RNA molecule having the sequence set out in SEQ ID NO:5; similar to SEQ ID NO:4 with some naturally occurring nucleotide derivatives (GCUCAGNCGGNAGAGCANCAGACUUUUAANCUGAN; RNA, backbone, methylation of C and the base at N not given here; naturally occurring modified nucleosides at n positions)	12	7	14	7	–	6 to 12	had the capacity to prevent RT binding to either primer alone or to primed template	40	7	not significantly different
